From PMC6364417, “Kinase inhibitor library screening identifies synergistic drug combinations effective in sensitive and resistant melanoma cells” (Journal of Experimental & Clinical Cancer Research : CR, 2019)

Assays:
Test in all cases: Kinase inhibitor library screening, PrestoBlue cell viability, 1 or 10 μM, 72 h
501Mel cells (parental) = settings: 72 h; for viability at 1 µM / viability at 10 µM: Homo sapiens; for viability at 1 µM: read-out: cell viability, 501Mel Parental, 1μΜ; for viability at 10 µM: read-out: cell viability, 501Mel Parental, 10μΜ
Method: (§1) After 72 h of treatment, cell viability was assessed using the PrestoBlue Cell Viability Reagent (ThermoFisher Scientific). Measurements were performed with the CLARIOstar Monochromator microplate reader (BMG Labtech).
(§2) Kinase inhibitor library screening. […] Each cell line was treated in its sensitive form (parental), and also as 2 resistant derivatives, which were made resistant to either Vemurafenib (XP) or Dabrafenib (GP). Drugs were added at 2 different concentrations, 1 and 10 μM, for 72 h and cell viability was assessed using the PrestoBlue Cell Viability assay. Results are depicted as % viability compared to untreated cells. Each cell line was analyzed at least in duplicate. […] (XLSX 95 kb)

[1] = test system: 501Mel-GP cells (Dabrafenib-resistant); settings: 72 h; for viability at 1 µM / viability at 10 µM: Homo sapiens; for viability at 1 µM: read-out: cell viability, 501Mel GP, 1μΜ; for viability at 10 µM: read-out: cell viability, 501Mel GP, 10μΜ
Method: as §1, §2

[2] = test system: IGR37-XP cells (Vemurafenib-resistant); settings: for viability at 1 µM / viability at 10 µM: Homo sapiens, IGR-37, 72 h; for viability at 1 µM: read-out: cell viability, IGR37 XP, 1μΜ; for viability at 10 µM: read-out: cell viability, IGR37 XP, 10μΜ
Method: as §1, §2

[3] = test system: A375-XP cells (Vemurafenib-resistant); settings: for viability at 1 µM / viability at 10 µM: Homo sapiens, A-375, 72 h; for viability at 1 µM: read-out: cell viability, A375 XP, 1μΜ; for viability at 10 µM: read-out: cell viability, A375 XP, 10μΜ
Method: as §1, §2

[4] = test system: A375-GP cells (Dabrafenib-resistant); settings: for viability at 1 µM / viability at 10 µM: Homo sapiens, A-375, 72 h; for viability at 1 µM: read-out: cell viability, A375 GP, 1μΜ; for viability at 10 µM: read-out: cell viability, A375 GP, 10μΜ
Method: as §1, §2

[5] = test system: 501Mel-XP cells (Vemurafenib-resistant); settings: 72 h; for viability at 1 µM / viability at 10 µM: Homo sapiens; for viability at 1 µM: read-out: cell viability, 501Mel XP, 1μΜ; for viability at 10 µM: read-out: cell viability, 501Mel XP, 10μΜ
Method: as §1, §2

A375 cells (parental) = settings: for viability at 1 µM / viability at 10 µM: Homo sapiens, A-375, 72 h; for viability at 1 µM: read-out: cell viability, A375 Parental, 1μΜ; for viability at 10 µM: read-out: cell viability, A375 Parental, 10μΜ
Method: as §1, §2

[6] = test system: IGR37-GP cells (Dabrafenib-resistant); settings: for viability at 1 µM / viability at 10 µM: Homo sapiens, IGR-37, 72 h; for viability at 1 µM: read-out: cell viability, IGR37 GP, 1μΜ; for viability at 10 µM: read-out: cell viability, IGR37 GP, 10μΜ
Method: as §1, §2

IGR37 cells (parental) = settings: for viability at 1 µM / viability at 10 µM: Homo sapiens, IGR-37, 72 h; for viability at 1 µM: read-out: cell viability, IGR37 Parental, 1μΜ; for viability at 10 µM: read-out: cell viability, IGR37 Parental, 10μΜ
Method: as §1, §2

SMILES	viability at 1 µM (501Mel cells (parental)) [%]	viability at 10 µM (501Mel cells (parental)) [%]	viability at 1 µM [1] [%]	viability at 10 µM [1] [%]	viability at 1 µM [2] [%]	viability at 10 µM [2] [%]	viability at 1 µM [3] [%]	viability at 10 µM [3] [%]	viability at 1 µM [4] [%]	viability at 10 µM [4] [%]	viability at 1 µM [5] [%]	viability at 10 µM [5] [%]	viability at 1 µM (A375 cells (parental)) [%]	viability at 10 µM (A375 cells (parental)) [%]	viability at 1 µM [6] [%]	viability at 10 µM [6] [%]	viability at 1 µM (IGR37 cells (parental)) [%]	viability at 10 µM (IGR37 cells (parental)) [%]	other results
Cn1cnc2c(F)c(Nc3ccc(Br)cc3Cl)c(C(=O)NOCCO)cc21 [AZD6244 (Selumetinib)]	61.6	60.6	96.9	73.6	83.3	42.2	42.3	15	29.4	17.8	81.2	58.1	21.3	18.6	92	62.7	40.2	36.6	–
COc1ccc(-c2ccc3c(N4CCOC[C@@H]4C)nc(N4CCOC[C@@H]4C)nc3n2)cc1CO [AZD8055]	–	–	–	–	–	–	–	–	–	–	–	–	–	–	–	–	–	–	Cell viability in kinase inhibitor library screening, 501Mel Parental, 1μΜ (501Mel cells (parental); 501Mel Parental, 1μΜ, in %): 17.3; Cell viability in kinase inhibitor library screening, 501Mel Parental, 10μΜ (501Mel cells (parental); 501Mel Parental, 10μΜ, in %): 8.1; Cell viability in kinase inhibitor library screening, 501Mel GP, 1μΜ ([1]; 501Mel GP, 1μΜ, in %): 22.1; Cell viability in kinase inhibitor library screening, 501Mel GP, 10μΜ ([1]; 501Mel GP, 10μΜ, in %): 11.9; Cell viability in kinase inhibitor library screening, IGR37 XP, 10μΜ ([2]; IGR37 XP, 10μΜ, 72 h): 12.5%; Cell viability in kinase inhibitor library screening, IGR37 XP, 1μΜ ([2]; IGR37 XP, 1μΜ, 72 h, in %): 34.7; Cell viability in kinase inhibitor library screening, A375 XP, 1μΜ ([3]; A375 XP, 1μΜ, 72 h): 21.6; Cell viability in kinase inhibitor library screening, A375 XP, 10μΜ ([3]; A375 XP, 10μΜ, 72 h): 17.3; Cell viability in kinase inhibitor library screening, A375 GP, 1μΜ ([4]; A375 GP, 1μΜ, 72 h): 25.5; Cell viability in kinase inhibitor library screening, A375 GP, 10μΜ ([4]; A375 GP, 10μΜ, 72 h): 16.6; Cell viability in kinase inhibitor library screening, 501Mel XP, 1μΜ ([5]; 501Mel XP, 1μΜ, in %): 13.9; Cell viability in kinase inhibitor library screening, 501Mel XP, 10μΜ ([5]; 501Mel XP, 10μΜ, in %): 4.6; Cell viability in kinase inhibitor library screening, A375 Parental, 10μΜ (A375 cells (parental); A375 Parental, 10μΜ, 72 h): 19.2; Cell viability in kinase inhibitor library screening, A375 Parental, 1μΜ (A375 cells (parental); A375 Parental, 1μΜ, 72 h): 23.1; Cell viability in kinase inhibitor library screening, IGR37 GP, 10μΜ ([6]; IGR37 GP, 10μΜ, 72 h): 29.5%; Cell viability in kinase inhibitor library screening, IGR37 GP, 1μΜ ([6]; IGR37 GP, 1μΜ, 72 h, in %): 45.1; Cell viability in kinase inhibitor library screening, IGR37 Parental, 1μΜ (IGR37 cells (parental); IGR37 Parental, 1μΜ, 72 h, in %): 29.8; Cell viability in kinase inhibitor library screening, IGR37 Parental, 10μΜ (IGR37 cells (parental); IGR37 Parental, 10μΜ, 72 h, in %): 25.2
CNC(=O)CN1CCC(Oc2cc3c(Nc4cccc(Cl)c4F)ncnc3cc2OC)CC1 [AZD8931]	90.5	86	100	79.7	71.9	50	96.5	86	103	74.8	94.5	68.3	96.7	83.8	90.4	78	96.3	98.9	–
CN(C)C/C=C/C(=O)Nc1cc2c(Nc3ccc(F)c(Cl)c3)ncnc2cc1O[C@H]1CCOC1 [Afatinib (BIBW2992)]	102	1.5	98.8	6.2	94.7	10	102	4.1	94.1	12.6	88.6	-0.4	100	13.6	96.9	20.9	103	44.5	–
